Tests used:
Type in all cases: in vivo
[1] = test system: rapeseed; test: Test Example 5: effect on crop by foliage application, plastic box (symbol g); settings: 320 g/ha, 3 weeks after application
Method in brief: (§1)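 Seeds were sown in spots in sterilized diluvial soil held in a plastic box 21 cm × 13 cm × 7 cm deep, covered with about 1.5 cm of soil, and grown in a greenhouse at 25° C. to 30° C.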

[2] = test system: soybean; test: Test Example 5: effect on crop by foliage application, plastic box (symbol d); settings: 320 g/ha, 3 weeks after application
Method in brief: as §1

[3] = test system: Stellaria media; test: Test Example 4: herbicidal effect by soil treatment (symbol P)
Method in brief: (§2)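 Seeds were sown in sterilized diluvial soil, covered with about 1.5 cm of soil, and the soil surface was sprayed with a water-diluted emulsion of the compound at a predetermined rate. Plants grew in a greenhouse at 25° C. to 30° C.; effects were scored visually 3 weeks after application.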

[4] = test system: Monochoria vaginalis; test: Test Example 2: herbicidal activity, application during weed generation in submerged conditions (symbol C); settings: Table 23; application herbicide amount 320 g/ha; grade 0-5 by criteria of Test Example 1
Method in brief: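 Alluvial soil in pots was flooded to a 4 cm water depth and sown with a mix of the three weed species, then grown in a greenhouse at 25° C. to 30° C. At the one- to two-leaf stage, an emulsifiable formulation diluted in water to a set dose was applied to the water surface. Effects were scored visually 3 weeks later.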

[5] = test system: Veronica persica; test: Test Example 4: herbicidal effect by soil treatment (symbol R)
Method in brief: as §2

[6] = test system: Setaria viridis; test: Test Example 5: herbicidal effect by foliage application, plastic box (symbol G); settings: 320 g/ha, 3 weeks after application
Method in brief: (§3)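 Visual herbicidal score, taken three weeks post-application, of seedlings sprayed on the foliage with water-diluted emulsion at a predetermined amount; plants were 14 days old, greenhouse-raised at 25° C. to 30° C.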

[7] = test system: Echinochloa crus-galli var. crus-galli; test: Test Example 4: herbicidal effect by soil treatment (symbol H)
Method in brief: as §2

[8] = test system: beet; test: Test Example 5: effect on crop by foliage application, plastic box (symbol f); settings: 320 g/ha, 3 weeks after application
Method in brief: as §1

[9] = test system: soybean; test: Test Example 4: effect on crop by soil treatment (symbol d); settings: for d: soybean, effect grade on crop: 320 g/ha
Method in brief: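 Greenhouse culture at 25° C. to 30° C. followed sowing of seed in spots on sterilized diluvial soil with a soil cover close to 1.5 cm thick.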

[10] = test system: Setaria viridis; test: Test Example 4: herbicidal effect by soil treatment (symbol G)
Method in brief: as §2

[11] = test system: Echinochloa crus-galli var. crus-galli; test: Test Example 5: herbicidal effect by foliage application, plastic box (symbol H); settings: 320 g/ha, 3 weeks after application
Method in brief: as §3

[12] = test system: Digitaria ciliaris; test: Test Example 4: herbicidal effect by soil treatment (symbol F)
Method in brief: as §2

[13] = test system: Galium spurium; test: Test Example 5: herbicidal effect by foliage application, plastic box (symbol Q); settings: 320 g/ha, 3 weeks after application
Method in brief: as §3

[14] = test system: directly sowed rice plant; test: Test Example 3: effect on crop by foliage application, Wagner pot (symbol b); settings: application herbicide amount 320 g/ha; for b (directly sowed rice plant) effect on crop grade: Table 24
Method in brief: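 Wagner pot (1/10000 are), alluvial soil, submerged 0.1–0.5 cm; sown E. crus-galli var. crus-galli, L. chinensis, C. difformis, rice; greenhouse 25–30 °C.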

[15] = test system: Scirpus juncoides; test: Test Example 1: herbicidal activity, application before weed generation in submerged conditions (symbol B); settings: application herbicide amount 320 g/ha
Method in brief: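 Compound emulsion was diluted to a set herbicide amount and applied to the water surface on the sowing day, into submerged (4 cm) alluvial-soil pots sown with mixed weed seeds and transplanted 2.5-leaf rice. Pots were held in a 25–30 °C greenhouse, and weeds were scored 0–5 by herbicidal ratio after 3 weeks.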

[16] = application herbicide amount 320 g/ha

| SMILES | g: rapeseed, effect on crop grade [1] | d: soybean, effect on crop grade [2] | Herbicidal effect grade, C: Monochoria vaginalis [4] | G: Setaria viridis, herbicidal effect grade [6] | f: beet, effect on crop grade [8] | H: Echinochloa crus-galli var. crus-galli, herbicidal effect grade [11] | g: rapeseed, effect on crop (criteria 0-5) [1] | d: soybean, effect on crop (criteria 0-5) [2] | P: Stellaria media, herbicidal effect grade ([3]; 320 g/ha) | R: Veronica persica, herbicidal effect grade ([5]; 320 g/ha) | G: Setaria viridis, herbicidal effect (criteria 0-5) [6] | H: Echinochloa crus-galli var. crus-galli, herbicidal effect grade ([7]; 320 g/ha) | f: beet, effect on crop (criteria 0-5) [8] | d: soybean, effect grade on crop [9] | G: Setaria viridis, herbicidal effect grade ([10]; 320 g/ha) | H: Echinochloa crus-galli var. crus-galli, herbicidal effect (criteria 0-5) [11] | F: Digitaria ciliaris, herbicidal effect grade ([12]; 320 g/ha) | Q: Galium spurium, herbicidal effect (criteria 0-5) [13] | effect on crop b (directly sowed rice plant), grade 0-5 [14] | Herbicidal effect grade, B: Scirpus juncoides [15] | also measured |
| --- | --- | --- | --- | --- | --- | --- | --- | --- | --- | --- | --- | --- | --- | --- | --- | --- | --- | --- | --- | --- | --- |
| CON=C(CC1CC(O)=C(c2c(C)cc(-c3ccccc3)cc2C)C1=O)C1CC1 (mixture of isomers) [9-028] | 4 (Herbicidal ratio of 70% or higher and lower than 90%) | 1 (Herbicidal ratio of 5% or higher and lower than 20%) | 4 (Herbicidal ratio of 70% or higher and lower than 90%) | 5 (Herbicidal ratio of 90% or more (almost completely withered)) | 3 (Herbicidal ratio of 40% or higher and lower than 70%) | 5 (Herbicidal ratio of 90% or more (almost completely withered)) |  |  |  |  |  |  |  |  |  |  |  |  |  |  | Herbicidal effect grade, P: Stellaria media [3, 16]: 0 (Herbicidal ratio of 5% or lower (almost no effect)); Herbicidal effect grade, R: Veronica persica [5, 16]: 0 (Herbicidal ratio of 5% or lower (almost no effect)); Herbicidal effect grade, H: Echinochloa crus-galli var. crus-galli [7, 16]: 5 (Herbicidal ratio of 90% or more (almost completely withered)); Effect on crop grade, d: soybean [9, 16]: 0 (Herbicidal ratio of 5% or lower (almost no effect)); Herbicidal effect grade, G: Setaria viridis [10, 16]: 5 (Herbicidal ratio of 90% or more (almost completely withered)); Herbicidal effect grade, F: Digitaria ciliaris [12, 16]: 5 (Herbicidal ratio of 90% or more (almost completely withered)); Q: Galium spurium, herbicidal effect grade [13]: 4 (Herbicidal ratio of 70% or higher and lower than 90%); b (directly sowed rice plant) effect on crop grade [14]: 5 (Herbicidal ratio of 90% or more (almost completely withered)); B (Scirpus juncoides) herbicidal effect grade [15]: 5 (Herbicidal ratio of 90% or more (almost completely withered)) |
| CCC(CC1CC(O)=C(c2c(C)cc(C)cc2OC)C1=O)=NOC (mixture of isomers) [13-003] | 4 (Herbicidal ratio of 70% or higher and lower than 90%) | 3 (Herbicidal ratio of 40% or higher and lower than 70%) | 3 (Herbicidal ratio of 40% or higher and lower than 70%) | 5 (Herbicidal ratio of 90% or more (almost completely withered)) | 0 (Herbicidal ratio of 5% or lower (almost no effect)) | 5 (Herbicidal ratio of 90% or more (almost completely withered)) |  |  |  |  |  |  |  |  |  |  |  |  |  |  | P: Stellaria media, herbicidal effect grade [3, 16]: 0 (Herbicidal ratio of 5% or lower (almost no effect)); R: Veronica persica, herbicidal effect grade [5, 16]: 0 (Herbicidal ratio of 5% or lower (almost no effect)); H: Echinochloa crus-galli var. crus-galli, herbicidal effect grade [7, 16]: 5 (Herbicidal ratio of 90% or more (almost completely withered)); d: soybean, effect on crop grade [9, 16]: 0 (Herbicidal ratio of 5% or lower (almost no effect)); G: Setaria viridis, herbicidal effect grade [10, 16]: 5 (Herbicidal ratio of 90% or more (almost completely withered)); F: Digitaria ciliaris, herbicidal effect grade [12, 16]: 5 (Herbicidal ratio of 90% or more (almost completely withered)); Q: Galium spurium, herbicidal effect grade [13]: 3 (Herbicidal ratio of 40% or higher and lower than 70%); b (directly sowed rice plant) effect on crop grade [14]: 5 (Herbicidal ratio of 90% or more (almost completely withered)); B (Scirpus juncoides) herbicidal effect grade [15]: 5 (Herbicidal ratio of 90% or more (almost completely withered)) |
| CCC(Oc1ccc2ncc(Br)cc2c1)C(=O)OC1=C(c2c(C)cc(C)cc2C)C(=O)C(CC(C)=NOC)C1 (stereo not drawn) [1-140] |  |  | 3 (Herbicidal ratio of 40% or higher and lower than 70%) |  |  |  | 5 (Herbicidal ratio of 90% or more (almost completely withered)) | 3 (Herbicidal ratio of 40% or higher and lower than 70%) | 0 (Herbicidal ratio of 5% or lower (almost no effect)) | 0 (Herbicidal ratio of 5% or lower (almost no effect)) | 5 (Herbicidal ratio of 90% or more (almost completely withered)) | 5 (Herbicidal ratio of 90% or more (almost completely withered)) | 3 (Herbicidal ratio of 40% or higher and lower than 70%) | 1 (Herbicidal ratio of 5% or higher and lower than 20%) | 5 (Herbicidal ratio of 90% or more (almost completely withered)) | 5 (Herbicidal ratio of 90% or more (almost completely withered)) | 5 (Herbicidal ratio of 90% or more (almost completely withered)) | 2 (Herbicidal ratio of 20% or higher and lower than 40%) | 5 (Herbicidal ratio of 90% or more (almost completely withered)) | 5 (Herbicidal ratio of 90% or more (almost completely withered)) |  |
| CC(CC1CC(O)=C(c2c(C)cc(C)cc2C)C1=O)=NOCc1ccc(Cl)cc1 (stereo not drawn) [1-137] |  |  | 3 (Herbicidal ratio of 40% or higher and lower than 70%) |  |  |  | 4 (Herbicidal ratio of 70% or higher and lower than 90%) | 0 (Herbicidal ratio of 5% or lower (almost no effect)) | 0 (Herbicidal ratio of 5% or lower (almost no effect)) | 0 (Herbicidal ratio of 5% or lower (almost no effect)) | 5 (Herbicidal ratio of 90% or more (almost completely withered)) | 5 (Herbicidal ratio of 90% or more (almost completely withered)) | 0 (Herbicidal ratio of 5% or lower (almost no effect)) | 0 (Herbicidal ratio of 5% or lower (almost no effect)) | 5 (Herbicidal ratio of 90% or more (almost completely withered)) | 5 (Herbicidal ratio of 90% or more (almost completely withered)) | 5 (Herbicidal ratio of 90% or more (almost completely withered)) | 0 (Herbicidal ratio of 5% or lower (almost no effect)) | 5 (Herbicidal ratio of 90% or more (almost completely withered)) | 5 (Herbicidal ratio of 90% or more (almost completely withered)) |  |
| CC(CC1CC(O)=C(c2c(C)cc(C)cc2C)C1=O)=NOCc1ccc(F)cc1 (stereo not drawn) [1-136] |  |  | 5 (Herbicidal ratio of 90% or more (almost completely withered)) |  |  |  | 4 (Herbicidal ratio of 70% or higher and lower than 90%) | 1 (Herbicidal ratio of 5% or higher and lower than 20%) | 0 (Herbicidal ratio of 5% or lower (almost no effect)) | 0 (Herbicidal ratio of 5% or lower (almost no effect)) | 5 (Herbicidal ratio of 90% or more (almost completely withered)) | 5 (Herbicidal ratio of 90% or more (almost completely withered)) | 0 (Herbicidal ratio of 5% or lower (almost no effect)) | 0 (Herbicidal ratio of 5% or lower (almost no effect)) | 5 (Herbicidal ratio of 90% or more (almost completely withered)) | 5 (Herbicidal ratio of 90% or more (almost completely withered)) | 5 (Herbicidal ratio of 90% or more (almost completely withered)) | 4 (Herbicidal ratio of 70% or higher and lower than 90%) | 5 (Herbicidal ratio of 90% or more (almost completely withered)) | 5 (Herbicidal ratio of 90% or more (almost completely withered)) |  |
